Patent US5474988A, “5-phenylpyrrolo-1,4-benzoxazine and 5-phenylpyrrolo-1,4-benzothiazine compounds, process and intermediates for their production and pharmaceutical compositions containing them” (Kali-Chemie Pharma GmbH, priority 1993, dated 1995)

Key:
5-lipoxygenase [1] = target: T1, 5-lipoxygenase (Cavia porcellus, UniProt A0A286X958); test: inhibitory activity on free 5-lipoxygenase concentrated from peritoneal PMNs of the guinea-pig (5-HETE formation); assay type: biochemical; settings: 10^-5 mole/liter; guinea-pig 5-LO, 37° C.; read-out: In vitro % inhibitory activity on 5-HETE formation caused by free 5-LO
T1 construct: The 5-LO was concentrated in a known manner from PMNs of male Dunkin-Hartley guinea-pigs; endogenous in cells; host or cells: peritoneal PMNs of male Dunkin-Hartley guinea-pigs, homogenized; 10,000 x g supernatant used as enzyme solution
T1 sequence (A0A286X958 1-674): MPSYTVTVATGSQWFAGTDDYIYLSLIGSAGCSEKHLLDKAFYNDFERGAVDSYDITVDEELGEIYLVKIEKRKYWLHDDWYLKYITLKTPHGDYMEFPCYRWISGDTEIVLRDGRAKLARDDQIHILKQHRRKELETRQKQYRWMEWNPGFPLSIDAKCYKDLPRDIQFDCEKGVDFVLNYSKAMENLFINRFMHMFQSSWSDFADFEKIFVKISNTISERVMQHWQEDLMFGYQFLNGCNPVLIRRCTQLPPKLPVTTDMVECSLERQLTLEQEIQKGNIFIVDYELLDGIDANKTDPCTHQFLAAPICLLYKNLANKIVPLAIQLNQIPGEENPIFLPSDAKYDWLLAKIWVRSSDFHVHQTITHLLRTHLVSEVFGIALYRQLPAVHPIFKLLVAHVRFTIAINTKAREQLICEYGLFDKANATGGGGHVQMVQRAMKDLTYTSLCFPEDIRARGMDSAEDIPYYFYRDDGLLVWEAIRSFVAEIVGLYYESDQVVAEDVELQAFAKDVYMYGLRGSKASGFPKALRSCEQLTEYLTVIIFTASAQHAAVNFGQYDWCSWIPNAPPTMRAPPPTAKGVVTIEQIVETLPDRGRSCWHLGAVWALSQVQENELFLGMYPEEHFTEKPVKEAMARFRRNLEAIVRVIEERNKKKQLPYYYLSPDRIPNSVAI
Description: 4b. In vitro determination of inhibitory activity on 5-lipoxygenase concentrated from peritoneal PMNs of the guinea-pig.
An inhibition of 5-lipoxygenase can be caused by direct inhibitory action of the substances on the enzyme and/or by interference with the activation of the enzyme. While in test 4a the 5-lipoxygenase inhibition of the substances was investigated in rat PMN cells, in test 4b the inhibitory activity of the substances was investigated on free 5-LO concentrated from guinea-pig PMN cells according to the method of D. Aharony et al., J. Biol. Chem. 261 (1986), 11512-11519 (1986).
The 5-LO was concentrated in a known manner from PMNs of male Dunkin-Hartley guinea-pigs (body weight 400 to 500 g) as follows. 10 ml of a solution containing 27.9 g/l of sodium thioglycolate were injected i.p. into the animals in order to induce the PMN invasion as a result of this inflammatory stimulus. After 22 hours, the animals were sacrificed by lethal ether anaesthesia. 70 ml of HBSS without Ca^++ and Mg^++ ions and containing 0.2% by weight of sodium citrate were then injected into the abdominal cavity. The cell suspension (>80% of the cells are PMNs) was withdrawn from the abdominal cavity, filtered through a cheese-making filter cloth, and washed twice with a 50 mM potassium phosphate buffer solution of pH 7.4, which contained 0.5 mM ethylenediaminetetraacetic acid, 1% by weight of gelatine and 20 μM indomethacin. The cells were resuspended, and the PMN suspension containing 10^8 cells/ml was homogenized three times for 15 seconds each in an ice-bath in a homogenizer of the Labsonic™ type set at high speed. The resulting suspension was centrifuged at 4° C. (15 minutes at 10,000×g). The supernatant liquid was used for the investigation as a solution of the free 5-LO enzyme.
The experiments were carried out at 37° C. for 7 minutes using 0.625 ml samples of this enzyme solution. For the experiments, the enzyme solution (=equivalent of 2.5×10^7 cells), 0.5 mM glutathione, 1 mM ATP and 0.3 mM calcium chloride were added to test tubes. […] of the test substance were added to the samples dissolved in sufficient dimethylformamide such that the dimethylformamide concentration in each test tube is 0.5%. Only dimethylformamide was added to the control samples. After 2 minutes, the formation of 5-(S)-hydroxy-6,8,11,14-eicosatetraenoic acid (=[…]) was initiated by addition 10 μM arachidonic acid. After 5 minutes, the reaction was terminated by addition of 0.625 ml of a mixture of methyl acetate/methanol/0.2 m citric acid 15:2:0.5 v/v/v. 5-HETE was extracted twice using this solvent mixture. The 5-HETE-containing phases were combined and evaporated to dryness under a nitrogen atmosphere. The residue was taken up in a mixture of methanol/water/acetic acid 75:21:0.02 v/v/v having a pH of 5.7, and the solution was investigated for its content of 5-HETE by means of reverse phase HPLC. To accomplish this, a […] silanized silica gel column (Hichrom® ODS2, 250×4.6 mm) was employed as the adsorbent and a mixture of methanol/water/acetic acid 75:21:0.02 adjusted to pH 5.7 with ammonia and having a flow rate of 1 ml/min was used as the eluent. 5-HETE, which was eluted as a single peak after 20 minutes, was identified by comparison with standard solutions eluted at the same time and determined using a UV light detector at a wavelength of 235 nm. Quantitative determination was carried out by comparison of the peak area obtained with peak areas occurring in the calibrated standard solutions. From the 5-HETE contents of the samples determined, the inhibitory activity of the test substances was calculated in % inhibition of 5-HETE synthesis in comparison to the control samples containing no test substance.

5-lipoxygenase [2] = test: inhibition of 5-lipoxygenase activity in polymorphonuclear rat leucocytes (LTB4 formation); assay type: cell-based; settings: 10^-5 mol/l; 22° C.
Description: 4. In vitro determination of 5-lipoxygenase inhibition. 4a. In vitro determination of inhibition of 5-lipoxygenase activity in polymorphonuclear rat leucocytes. Arachidonic acid contained in cell membranes is released after activiation of the polymorphonuclear leucocytes (=PMN). During the course of this, under the action of the enzyme 5-lipoxygenase (=5-LO) arachidonic acid metabolites are synthesized which can be converted to leucotriene B4 (=LTB4) by LTA4 hydrolase. LTB4 is a principal metabolite of the arachidonic acid metabolism taking place on activation of the enzyme 5-LO by the inflammatory stimulus in the cell membrane. In in vitro systems, this metabolite is secreted from PMNs. […] To accomplish this, the content of LTB4 in a culture medium of rat peritoneal PMNs was determined after stimulation by calcimycin (=calcium-ionophore A23187) such as described by […] et al., Can. J. Physiol. Pharmacol. 67 (1989), 17. A cell suspension containing peritoneal PMNs of male Sprague-Dawley rats (body weight 200 to 250 g) was obtained in a known manner as follows: 6 ml of a solution containing 27.9 g/l of sodium thioglycolate were injected i.p. into the animals in order to induce the PMN invasion due to this inflammatory stimulus. After 22 hours, the animals were sacrificed by means of lethal ether anaesthesia. 20 ml of a Hank's salt solution (=Hank's Balanced Salt Solution=HBSS), but without Ca^++ and Mg^++ ions and with 0.2% by weight of sodium citrate, were then injected into the abdominal cavity. The suspension of accumulated cells was removed from the abdominal cavity and the cells were separated by centrifugation (10 minutes at 400×g). The cells were purified by repeated centrifugation in the presence of Ficoll-Paque®, (=metrizoic acid preparation, […], manufacturer Pharmacia), then washed twice with HBSS containing Ca^++ and Mg^++ ions and resuspended in HBSS containing Ca^ ++ and Mg^++ ions and buffered with 10 mM HEPES (=hydroxyethylpiperazinoethanesulfonic acid). In order to carry out the tests, samples of 0.7 ml of the PMN suspension (=0.5×10^6 cells) in each case were incubated for 15 minutes at 22° C. in plastic tubes containing 10 μM of the test substance in dimethylformamide or, as a control experiment, only containing dimethylformamide. The LTB4 synthesis was initiated in the samples by addition of calcimycin (final concentration 5 μm), and the samples were incubated for 10 minutes at 22° C. Only solvent was added to blank control samples. After 10 minutes, the reaction was terminated by addition of 0.3 ml of cold methanol. The samples were kept for 1 hour at 4° C. and then centrifuged (5 minutes at 10,000×g). The supernatant liquid was investigated to determine its LTB4 content by means of reverse phase high-pressure liquid chromatography (=reverse phase HPLC). […] The LTB4 was identified by comparison with authentic standard solutions eluting at the same time and determined at a wavelength of 270 nm. The LTB4 contents are determined from comparison with calibrated standard solutions, and from this the inhibitory activity of the test substances was calculated in % inhibition of the LTB4 synthesis in comparison with the control samples containing no test substance.

| SMILES | inhibition at 10 µM (5-lipoxygenase [1]) [%] | In vitro inhibitory activity on LTB4 formation in rat PMNs stimulated by calcium ionophore A23187 (5-lipoxygenase [2]) [%] |
| --- | --- | --- |
| Cc1ccnc(N2CCN(CCCC3Cn4c(-c5ccc(O)cc5)c(C)c5cccc(c54)O3)CC2)c1 (stereo not shown) [Example 16] | 57 | 60 |
| COc1cc(-c2c(C)c3cccc4c3n2CC(CCC(=O)N2CCN(c3cc(C)ccn3)CC2)O4)ccc1O (stereo not shown) [Example 38] | 100 | 97 |
| Cc1cc(-c2c(C)c3cccc4c3n2CC(CCN2CCC(N(C)c3nccc(=O)[nH]3)CC2)O4)cc(C)c1O (stereo not shown) [Example 40] | 56 | 82 |
| Cc1ccnc(N2CCN(C(=O)CCC3Cn4c(-c5ccc(O)c(O)c5)c(C)c5cccc(c54)O3)CC2)c1 (stereo not shown) [Example 49] | 99 | 88 |
| Cc1cc(-c2c(C)c3cccc4c3n2CC(CCN2CCN(c3ccccn3)CC2)O4)cc(C)c1O (stereo not shown) [Example 59] | 70 | – |
| Cc1ccc(N2CCN(CCC3Cn4c(-c5cc(C)c(O)c(C)c5)c(C)c5cccc(c54)O3)CC2)nc1 (stereo not shown) [Example 62] | 77 | 56 |

Now from value to compound, other results behind:

| inhibition at 10 µM (5-lipoxygenase [1]) [%] | SMILES | In vitro inhibitory activity on LTB4 formation in rat PMNs stimulated by calcium ionophore A23187 (5-lipoxygenase [2]) [%] |
| --- | --- | --- |
| 95 | Cc1ccnc(N2CCN(CCCC3Cn4c(-c5cc(C)c(O)c(C)c5)c(C)c5cccc(c54)O3)CC2)c1 (stereo not shown) [Example 11] | – |
| 30 | Cc1ccnc(N2CCN(CCC3Cn4c(-c5ccc(O)cc5)c(C)c5cccc(c54)S3)CC2)c1 (stereo not shown) [Example 21] | 42 |
| 55 | COc1cc(-c2c(C)c3cccc4c3n2CC(CCN2CCN(c3ncccc3C)CC2)O4)ccc1O (stereo not shown) [Example 35] | 79 |
| 65 | Cc1c(-c2ccc(O)cc2)n2c3c(cccc13)OC(CCC(=O)N1CCN(c3ccccn3)CC1)C2 (stereo not shown) [Example 36] | 89 |
| 74 | COc1cc(-c2c(C)c3cccc4c3n2CC(CCCCN2CCN(c3cc(C)ccn3)CC2)S4)cc(C)c1O (stereo not shown) [Example 64] | – |
